Test results reported in patent publication US4985433A, “2-amino-7-(pyridinylmethyl)-3H,5H-pyrrolo[3,2-d]pyrimidin-4-ones and pharmaceutical uses and compositions containing the same” (BioCryst, Inc., priority 1989, dated 1991).

Test system: plasma inosine
Assay: Plasma inosine after intraperitoneal injection in Lewis Rats (HPLC of plasma extract)
Assay type: in vivo
Conditions: intraperitoneal injection in aqueous carrier with ten percent DMSO, 30 mg twice per day, versus vehicle controls, plasma taken at specific times after administration
Protocol: A pharmaceutical composition for intraperitoneal injection is prepared for testing the compound (IA). An intraperitoneal injection solution containing the compound of Example 8 is dissolved in an aqueous carrier that contains ten percent DMSO.
The compound (IA) is intraperitoneally injected into Lewis Rats via the test composition of Example 21 to provide 30 mg of the compound (IA), with an injection given twice per day. Controls are used, which receive only the vehicle. At specific times after administration, the animals are sacrificed and plasma samples are prepared. The plasma is extracted with cold 0.5N HClO4 and neutralized with solid NH4 HCO3. After removal of perchlorate salts, the extract is subjected to HPLC on a reversed phase column (Spherisorb ODSI).
Compounds prepared as in Examples 10-20 are each made into a pharmaceutical formulation in accordance with the preparation of Example 21 and the resultant injectable solutions are tested in accordance with the procedure of Example 22.

With `Nc1nc2c(Cc3cccnc3)c[nH]c2c(=O)[nH]1` [compound (IA), 2-amino-7-(3-pyridinylmethyl)-3H,5H-pyrrolo[3,2-d]pyrimidin-4-one] the plasma inosine was “significant increase”.
